# Results published in article PMC8480901 (PLoS ONE, 2021).
# “And” between values parts separate entries of the source, which are not always exact repeats. Equal entries are not always repeated.
# Test system: J774.2 mouse macrophages
# Assay: LPS-induced cytokine and chemokine levels in J774.2 mouse macrophage cell supernatant (ELISA)
# Format: cell-based
# Conditions: for CXCL1 % reduction / CXCL1 [pg/mL] Mean / CXCL2 % reduction / CXCL2 [pg/mL] Mean / MMP9 % reduction / MMP9 [pg/mL] Mean / CXCL2 / MMP9: J774.2 cells; for CXCL1 % reduction / CXCL1 [pg/mL] Mean / CXCL2 % reduction / CXCL2 [pg/mL] Mean / MMP9 % reduction / MMP9 [pg/mL] Mean / CCl2, % reduction / CCl2, Mean / IL-1β % reduction / IL-6 % reduction / TNF-α % reduction / TNF-α Mean / CCl2 / CXCL1 / TNF-α / CXCL2 / MMP9: LPS; for CCl2, % reduction / CCl2, Mean / IL-1β % reduction / IL-6 % reduction / TNF-α % reduction / TNF-α Mean / CCl2 / CXCL1 / TNF-α: J774.2 supernatant; for CCl2 / CXCL1 / TNF-α / CXCL2 / MMP9: individual replicate
structure (smiles),measurement,setting,value
C[C@@H]1C[C@H]2[C@@H]3CCC4=CC(=O)C=C[C@]4(C)[C@@]3(F)[C@@H](O)C[C@]2(C)[C@@]1(O)C(=O)CO [Dexamethasone],CXCL1 % reduction,compound 0.0003 µM,-75%
same,CXCL1 [pg/mL] Mean,compound 0.0003 µM,45 pg/mL
same,CXCL2 % reduction,compound 0.0003 µM,24%
same,CXCL2 [pg/mL] Mean,compound 0.0003 µM,24934 pg/mL
same,MMP9 % reduction,compound 0.0003 µM,2.49%
same,MMP9 [pg/mL] Mean,compound 0.0003 µM,941 pg/mL
same,CXCL1 % reduction,compound 0.001 µM,-60%
same,CXCL1 [pg/mL] Mean,compound 0.001 µM,41 pg/mL
same,CXCL2 % reduction,compound 0.001 µM,22%
same,CXCL2 [pg/mL] Mean,compound 0.001 µM,25589 pg/mL
same,MMP9 % reduction,compound 0.001 µM,-3.26%
same,MMP9 [pg/mL] Mean,compound 0.001 µM,993 pg/mL
same,CXCL1 % reduction,compound 0.003 µM,-60%
same,CXCL1 [pg/mL] Mean,compound 0.003 µM,41 pg/mL
same,CXCL2 % reduction,compound 0.003 µM,22%
same,CXCL2 [pg/mL] Mean,compound 0.003 µM,25475 pg/mL
same,MMP9 % reduction,compound 0.003 µM,0.402%
same,MMP9 [pg/mL] Mean,compound 0.003 µM,960 pg/mL
same,CXCL1 % reduction,compound 0.01 µM,-89%
same,CXCL1 [pg/mL] Mean,compound 0.01 µM,48 pg/mL
same,CXCL2 % reduction,compound 0.01 µM,23%
same,CXCL2 [pg/mL] Mean,compound 0.01 µM,24995 pg/mL
same,MMP9 % reduction,compound 0.01 µM,-17%
same,MMP9 [pg/mL] Mean,compound 0.01 µM,1120 pg/mL
same,CXCL1 [pg/mL] Mean,compound 0.03 µM,66 pg/mL
same,CXCL2 % reduction,compound 0.03 µM,17%
same,CXCL2 [pg/mL] Mean,compound 0.03 µM,26915 pg/mL
same,MMP9 % reduction,compound 0.03 µM,-7%
same,MMP9 [pg/mL] Mean,compound 0.03 µM,1030 pg/mL
same,CXCL1 % reduction,compound 0.1 µM,-158%
same,CXCL1 [pg/mL] Mean,compound 0.1 µM,66 pg/mL
same,CXCL2 % reduction,compound 0.1 µM,23%
same,CXCL2 [pg/mL] Mean,compound 0.1 µM,25079 pg/mL
same,MMP9 % reduction,compound 0.1 µM,-12%
same,MMP9 [pg/mL] Mean,compound 0.1 µM,1071 pg/mL
same,CXCL1 % reduction,compound 0.3 µM,-170%
same,CXCL1 [pg/mL] Mean,compound 0.3 µM,69 pg/mL
same,CXCL2 % reduction,compound 0.3 µM,24%
same,CXCL2 [pg/mL] Mean,compound 0.3 µM,24836 pg/mL
same,MMP9 % reduction,compound 0.3 µM,4.75%
same,MMP9 [pg/mL] Mean,compound 0.3 µM,921 pg/mL
same,CXCL1 % reduction,compound 1 µM,-156%
same,CXCL1 [pg/mL] Mean,compound 1 µM,66 pg/mL
same,CXCL2 % reduction,compound 1 µM,21%
same,CXCL2 [pg/mL] Mean,compound 1 µM,25750 pg/mL
same,MMP9 % reduction,compound 1 µM,-12%
same,MMP9 [pg/mL] Mean,compound 1 µM,1077 pg/mL
same,"LPS-induced TNF-α, IL-6, and IL-1β in supernatant","J774.2 mouse macrophages, 0.0003-1 µM",dose-dependent reductions
same,"CCl2, % reduction",0.0003 µM,30%
same,"CCl2, Mean",0.0003 µM,25543 pg/mL
same,IL-1β % reduction,0.0003 µM,-32%
same,IL-6 % reduction,0.0003 µM,-12%
same,TNF-α % reduction,0.0003 µM,-6.59%
same,TNF-α Mean,0.0003 µM,1457 pg/mL
same,CCl2,0.0003 µM,25420.3 pg/mL and 25666.2 pg/mL
same,CXCL1,0.0003 µM,47.7 pg/mL and 41.8 pg/mL
same,TNF-α,0.0003 µM,1400.2 pg/mL and 1513.9 pg/mL
same,"CCl2, % reduction",0.001 µM,27%
same,"CCl2, Mean",0.001 µM,26540 pg/mL
same,IL-1β % reduction,0.001 µM,-9%
same,IL-6 % reduction,0.001 µM,2.11%
same,TNF-α Mean,0.001 µM,1347 pg/mL
same,CCl2,0.001 µM,25719.1 pg/mL and 27360.7 pg/mL
same,CXCL1,0.001 µM,36.1 pg/mL and 45.9 pg/mL
same,TNF-α,0.001 µM,1307.1 pg/mL and 1387.6 pg/mL
same,"CCl2, % reduction",0.003 µM,17%
same,"CCl2, Mean",0.003 µM,29971 pg/mL
same,IL-1β % reduction,0.003 µM,20%
same,IL-6 % reduction,0.003 µM,-10%
same,TNF-α % reduction,0.003 µM,9%
same,TNF-α Mean,0.003 µM,1248 pg/mL
same,CCl2,0.003 µM,29318.9 pg/mL and 30622.8 pg/mL
same,CXCL1,0.003 µM,44.3 pg/mL and 37.5 pg/mL
same,TNF-α,0.003 µM,1276.5 pg/mL and 1220.4 pg/mL
same,"CCl2, % reduction",0.01 µM,11%
same,"CCl2, Mean",0.01 µM,32289 pg/mL
same,IL-1β % reduction,0.01 µM,44%
same,IL-6 % reduction,0.01 µM,16%
same,TNF-α % reduction,0.01 µM,16%
same,TNF-α Mean,0.01 µM,1149 pg/mL
same,CCl2,0.01 µM,33314.7 pg/mL and 31263.9 pg/mL
same,CXCL1,0.01 µM,53.3 pg/mL and 43.3 pg/mL
same,TNF-α,0.01 µM,1202.6 pg/mL and 1095.5 pg/mL
same,"CCl2, % reduction",0.03 µM,-11%
same,"CCl2, Mean",0.03 µM,39841 pg/mL
same,IL-1β % reduction,0.03 µM,63%
same,IL-6 % reduction,0.03 µM,40%
same,TNF-α % reduction,0.03 µM,30%
same,TNF-α Mean,0.03 µM,960 pg/mL
same,CCl2,0.03 µM,43664.9 pg/mL and 36017.7 pg/mL
same,CXCL1,0.03 µM,62.3 pg/mL and 70.1 pg/mL
same,TNF-α,0.03 µM,997.7 pg/mL and 922.4 pg/mL
same,"CCl2, % reduction",0.1 µM,-6%
same,"CCl2, Mean",0.1 µM,38142 pg/mL
same,IL-1β % reduction,0.1 µM,69%
same,IL-6 % reduction,0.1 µM,54%
same,TNF-α % reduction,0.1 µM,37%
same,TNF-α Mean,0.1 µM,868 pg/mL
same,CCl2,0.1 µM,39902.2 pg/mL and 36382.1 pg/mL
same,CXCL1,0.1 µM,70.5 pg/mL and 61.8 pg/mL
same,TNF-α,0.1 µM,957.1 pg/mL and 779.4 pg/mL
same,"CCl2, % reduction",0.3 µM,15%
same,"CCl2, Mean",0.3 µM,30843 pg/mL
same,IL-1β % reduction,0.3 µM,75%
same,IL-6 % reduction,0.3 µM,57%
same,TNF-α % reduction,0.3 µM,49%
same,TNF-α Mean,0.3 µM,706 pg/mL
same,CCl2,0.3 µM,33366.7 pg/mL and 28320.1 pg/mL
same,CXCL1,0.3 µM,70.8 pg/mL and 67.4 pg/mL
same,TNF-α,0.3 µM,780.3 pg/mL and 630.8 pg/mL
same,"CCl2, % reduction",1 µM,14%
same,"CCl2, Mean",1 µM,31213 pg/mL
same,IL-1β % reduction,1 µM,76%
same,IL-6 % reduction,1 µM,58%
same,TNF-α % reduction,1 µM,52%
same,TNF-α Mean,1 µM,671 pg/mL
same,CCl2,1 µM,32973.4 pg/mL and 29452.4 pg/mL
same,CXCL1,1 µM,65.4 pg/mL and 65.8 pg/mL
same,TNF-α,1 µM,708.1 pg/mL and 633.8 pg/mL
same,CXCL2,compound 0.0003 µM,24204.6 pg/mL and 25664.1 pg/mL
same,MMP9,compound 0.0003 µM,875.528 pg/mL and 1006.68 pg/mL
same,CXCL2,compound 0.001 µM,24896.6 pg/mL and 26281.1 pg/mL
same,MMP9,compound 0.001 µM,908.955 pg/mL and 1077.76 pg/mL
same,CXCL2,compound 0.003 µM,26063.4 pg/mL and 24885.7 pg/mL
same,MMP9,compound 0.003 µM,895.348 pg/mL and 1024.81 pg/mL
same,CXCL2,compound 0.01 µM,24945.6 pg/mL and 25043.7 pg/mL
same,MMP9,compound 0.01 µM,1078.2 pg/mL and 1162.43 pg/mL
same,CXCL2,compound 0.03 µM,28314.6 pg/mL and 25515.2 pg/mL
same,MMP9,compound 0.03 µM,1067.94 pg/mL and 991.656 pg/mL
same,CXCL2,compound 0.1 µM,25553.8 pg/mL and 24603.6 pg/mL
same,MMP9,compound 0.1 µM,1150.63 pg/mL and 991.656 pg/mL
same,CXCL2,compound 0.3 µM,25702.8 pg/mL and 23968.8 pg/mL
same,MMP9,compound 0.3 µM,877.422 pg/mL and 963.71 pg/mL
same,CXCL2,compound 1 µM,26832.3 pg/mL and 24668.5 pg/mL
same,MMP9,compound 1 µM,1055.41 pg/mL and 1099.09 pg/mL
